Test [1] has as its system ROS. The experiment in a line: ROS labeling by cytometry after H2O2. The test is classed as cell-based. To be noted: for inhibition at 1 µM / inhibition at 5 µM: Homo sapiens, ARPE-19; for inhibition at 1 µM: 1 μM compound then 200 μM H2O2 for 2 h, read-out: C. ROS inhibition 1 μM - ARPE-19 cells; for inhibition at 5 µM: 5 μM compound then 200 μM H2O2 for 2 h, read-out: B. ROS inhibition 5 μM - ARPE-19 cells. The method, then:
ARPE-19 cells were treated with MCK349 30 minutes then with 200 μM H2O2 for 2 h. 10 μM DCF-DA (2′,7′-Dichlorofluorescein diacetate) were added on cell media for 30 min. Cells were rinsed then detached (trypsin) and resuspended in PBS 0.5% BSA and 2 mM EDTA. The cells are analyzed by cytometry (ROS labeled with DCFDA-FITC).
(§1) All compounds were evaluated in different experiments. Results are represented as the mean of three independent experiments. A. ARPE-19 cells were treated with dose response of compound for 48 h. Values are reported as IC50 measured with the XTT assay. B and C. ARPE-19 cells were treated with 5 μM (B) or 1 μM (C) compound then with 200 μM H2O2 for 2 h. ROS were analyzed by cytometry. […] As illustrated in FIG. 1A. D. ARPE-19 cells were treated with 2.5 μM compound for 48 h and the level of CXCL1 mRNA was evaluated by qPCR. […] As illustrated in FIG. 1B. E. TIME cells were pre-treated with 2.5 μM compound for 1 h then stimulated with 100 ng/ml CXCL8 for 15 min p-ERK levels were analyzed by immunoblotting. HSP90 served as loading control. […] As illustrated in FIG. 1C.

In test [2] the test system is ARPE-19 cells. The experiment in a line: Cell viability (XTT assay). The test is classed as cell-based. To be noted: Homo sapiens, 48 h, read-out: A. Safety IC50 on ARPE-19 cells. On the procedure:
ARPE-19 cells were incubated in a 96-well plate with different effectors for 48 hours. Fifty microliters of sodium 3′-[1-phenylaminocarbonyl)-3,4-tetrazolium]-bis(4-methoxy-6-nitro) benzene sulfonic acid hydrate (XTT) reagent was added to each well. The test is based on the cleavage of the yellow tetrazolium salt XTT to form an orange formazan dye by metabolically active cells. This bio-reduction occurs in viable cells only and is associated with NAD(P)H production through glycolysis. Therefore, the amount of formazan dye measured at 490 nm, correlates directly with the number of metabolically active cells reflecting cell proliferation, viability, and cytotoxicity. Each assay was performed in quadruplicate.
as §1
(In general: Tetrazolium dyes change colour on reduction, which living cells bring about.)

Test [3] has as its system ocular (retinal) neo-angiogenesis. As to the kind of experiment: Hypoxia-induced retinal neo-angiogenesis in zebrafish. The test is classed as in vivo. To be noted: hypoxia 5% oxygen 72 h, 0.25, 0.5, or 1 μM. The method, then: All animal experiments were approved by the Experimental Animal Ethical Committee. Transgenic zebrafish embryos (fli: EGFP, blood vessels marked in GFP) were raised at 28° C. under standard experimental conditions. Zebrafish embryos at the age of 24 hpf were incubated in aquarium water containing 0.2 mmol/L 1-phenyl-2-thio-urea (PTU, Sigma). At 48-hpf, zebrafish embryos were placed for 72 h in normoxia (Nx) or hypoxia 5% oxygen […], in the presence of treatment. Retinal neo-angiogenesis was analyzed by fluorescent confocal microscope and quantified by ImageJ.

Test [4] concerns ERK activation (p-ERK). The experiment in a line: p-ERK immunoblotting after CXCL8 stimulation. The test is classed as cell-based. To be noted: 2.5 μM compound 1 h then 100 ng/ml CXCL8 for 15 min; read-out: E. p-ERK inhibition - TIME. The method, then: Cells were lysed in buffer containing 3% SDS, 10% glycerol and 0.825 mM Na2HPO4. 30 to 50 μg of proteins separated on 10% SDS-PAGE, transferred onto a PVDF membrane and then exposed to the appropriate antibodies. Proteins were visualized with the ECL system using horseradish peroxidase-conjugated anti-rabbit or anti-mouse antibodies.
as §1
(In western blotting, separated proteins are transferred to a membrane and probed.)

The test system of test [5] is pro-inflammatory, pro-angiogenic and/or pro-fibrotic mRNA markers. As to the kind of experiment: ARPE-19 stimulation to mimic diabetic retinopathy in vitro, mRNA by qPCR. The test is classed as cell-based. To be noted: ARPE-19, high glucose + cytokines, 5 or 10 μM. On the procedure:
One microgram of total RNA was used for the reverse transcription, using the QuantiTect Reverse Transcription kit (QIAGEN, Hilden, Germany), with blend of oligo (dT) and random primers to prime first-strand synthesis. SYBR master mix plus (Eurogentec) was used for qPCR. The mRNA level was normalized to 36B4 mRNA
(§2) ARPE-19 cells were cultured in hyperglycaemic conditions (D-glucose, 25 mmol/l) for 16 days at 37° C. under 5% CO2 in medium (DMEM/F12) supplemented with 10% FBS and 1% penicillin. On day 16, cells were pre-treated with MCK349. On day 17, cells were washed and treated with MCK349 and cytokines (10 ng/ml IL1ß, 25 ng/ml VEGF and 25 ng/ml TNFα) for 24 h. Cytokines are analyzed by multiplex ELISA (Meso Scale Discovery) on the supernatant. Cells were recovered to analyze the mRNA level of different markers by qPCR.
(In general: In qPCR the cycle at which signal appears reflects the starting amount.)

Test [6] deals with pro-inflammatory cytokines. As to the kind of experiment: LPS stimulated whole blood, multiplex ELISA. The test is classed as cell-based. To be noted: human whole blood, 5 or 10 μM 1 h prior to 10 ng/ml LPS for 18 h. The source says: Human peripheral […] were obtained from healthy donors with informed consent following the Declaration of Helsinki according to recommendations of an independent scientific review board. The project has been validated by The Etablissement Français du Sang, the French national agency for blood collection (protocol 7952NQ). Blood samples were collected using ethylene diamine tetraacetic acid-containing tubes.
Whole blood will be removed from a single donor (K3-EDTA) and diluted 1:5 with RPMI 1640. Within 30 minutes of sampling, blood will be incubated with 5 or 10 μM MCK349 for 1 h prior to 10 ng/ml LPS stimulation for 18 h. Blood is centrifuged to recover plasma and cytokines are analyzed by multiplex ELISA (Meso Scale Discovery).
(§3) Cytokines from plasma (whole blood) or supernatant (ARPE-19 cells) were analyzed by multiplex ELISA. A multiplex ELISA was designed from U-PLEX Biomarker Group 1 (hu) Assays (K15069L-1). The protocol performed follows the instructions of the supplier.

Test [7] relates to pro-inflammatory, pro-angiogenic and/or pro-fibrotic cytokines. The experiment in a line: ARPE-19 stimulation to mimic diabetic retinopathy in vitro, cytokines by multiplex ELISA. To be noted: ARPE-19, high glucose + cytokines, 5, 10, or 25 μM. The test is classed as cell-based. The method, then:
as §2, §3

In test [8] the test system is TIME cells. As to the kind of experiment: Endothelial cells proliferation. The test is classed as cell-based. To be noted: 72 h. The method, then:
TIME cells were plated in 12-well plates (25 000 cells/well) in 0.5% SVF media and then stimulated with 100 ng/mL CXCL8 or CXCL7 for 72 h. Cell proliferation is assessed by cell count. The results are expressed as % of day 0 relative to the condition tested.

The subject of test [9] is TIME cells. As to the kind of experiment: Vessels formation assay on Matrigel. The test is classed as cell-based. To be noted: 5 or 10 μM. The method, then: 300 μL of Matrigel Matrix were coated in 24-well plates and put 1 h a 37° C. Then Time cells were plated (300 000 cells/well). Plates were then incubated at 37° C., 5% CO2 for 24 hours. Representative images were taken with the Evos XL Core Cell Imaging System at low magnification (4×).

For test [10], the system named is choroidal neovascularization (CNV). The experiment in a line: Laser induced choroidal neovascularization and vascular leakage in mice. It counts as in vivo. To be noted: intravitreal 52 μg/ml (2 μl) four times, Day 9 and 15. The method, then:
Laser photocoagulation (shoot retina with laser beam (50 μm, 0.1 s, and 250~300 mW or any other parameters reasonable) for 4 spots avoiding blood vessels) were performed binocularly on each animal at Day 1 on male C57 mice (8 mice per group).
Vehicle and MCK349 (52 μg/ml) were delivered by binocular intravitreal injection (2 μl) four times in total. Once on Day 1 (right after modeling), Day 4, Day 7 and Day 11. Optical Coherence Tomography (OCT) was performed once on modeling day right after laser photocoagulation and once on Day 9 and Day 15. CNV volume of each lesion will be measured. Fundus Fluorescein Angiography (FFA) was conducted once on Day 9 and Day 15. The angiograms will be graded as follows: Grade 0, no bright hyperfluorescence; Grade 1, hyperfluorescence without leakage; Grade 2a, hyperfluorescence and late leakage; and Grade 2b, bright hyperfluorescence and late leakage beyond treated areas.

“Also recorded” adds a separate entry of the source.

The term inhibition denotes the percentage by which the read-out fell short of the control. The IC50 is the point on the concentration scale where inhibition reaches its midpoint. Consider `CC(C)c1ccc(Cn2nc(Nc3ccccc3)nc2N)cc1` [MCK263, 1-(4-isopropylbenzyl)-N^3-phenyl-1H-1,2,4-triazole-3,5-diamine], for which, in [1], the inhibition at 1 µM is at least 50% and the inhibition at 5 µM is at least 50%. The IC50 in [2] was above 25 µM. For the same compound, in test [3], the “ocular (retinal) neo-angiogenesis in zebrafish” value (“ocular” below) is given as “inhibit ocular (retinal) neo-angiogenesis; also recorded: inhibit ocular neoangiogenesis”. Moreover, in test [4], the inhibition at 2.5 µM is at least 50%.
In the case of `Cc1ccc(Nc2nc(N)n(Cc3cccc(Br)c3)n2)cc1` [MCK342, 1-(3-bromobenzyl)-N^3-(4-methylphenyl)-1H-1,2,4-triazole-3,5-diamine], in [1], the inhibition at 1 µM is at least 50% and the inhibition at 5 µM is at least 50%. In addition, the “expression (mRNA) of pro-angiogenic and/or pro-inflammatory cytokines in diabetic retinopathy model in vitro” value in [5] is “inhibit the expression”. The IC50 in test [2] is above 25 µM. For the same compound, the “pro-inflammatory cytokines induced by LPS stimulation in whole blood” value in [6] is recorded as “inhibit pro-inflammatory cytokines”. Also, the “secretion of pro-angiogenic and/or pro-inflammatory cytokines in diabetic retinopathy model in vitro” value in [7] was “inhibit the expression (mRNA, FIG. 3) and secretion”. Also, in test [3], the “ocular” value is reported as “inhibit ocular neoangiogenesis”. Also, the “ocular” value in test [3] (listed as MC342) is given as “inhibit ocular (retinal) neo-angiogenesis”. For the same compound, the inhibition at 2.5 µM in test [4] was below 50%.
Take `Nc1nc(Nc2ccc(Cl)c(Cl)c2)nn1Cc1cccc(Br)c1` [MCK349, 1-(3-bromobenzyl)-N^3-(3,4-dichlorophenyl)-1H-1,2,4-triazole-3,5-diamine]: in test [1] (ARPE-19, 1 μM MCK349 then 200 μM H2O2 for 2 h), the “oxidative stress (ROS) inhibition” value was “inhibits oxidative stress”. In test [1], the inhibition at 1 µM is at least 50% and the inhibition at 5 µM was at least 50%. Besides, in [8] (100 ng/mL CXCL7, 0.1, 0.2 or 0.5 μM), the “endothelial cell proliferation induced by CXCL7” value is on record as “inhibiting endothelial cell proliferation”. Moreover, the “endothelial cell proliferation induced by CXCL8” value in test [8] (100 ng/mL CXCL8, 0.1, 0.2 or 0.5 μM) is “inhibiting endothelial cell proliferation induced by CXCL8”. Moreover, the “expression (mRNA) of pro-angiogenic and/or pro-inflammatory cytokines in diabetic retinopathy model in vitro” value in [5] was “inhibits pro-inflammatory, pro-angiogenic and/or pro-fibrotic mRNA markers; also recorded: inhibit the expression”. Moreover, the concentration for half-maximal inhibition (IC50) in test [2] is above 25 µM. Moreover, the “pro-inflammatory cytokines induced by LPS stimulation in whole blood” value in test [6] was “inhibit pro-inflammatory cytokines”. The “vessel formation on matrigel” value in test [9] is listed as “inhibiting vessel formation on matrigel”. Moreover, in test [7], the “secretion of pro-angiogenic and/or pro-inflammatory cytokines in diabetic retinopathy model in vitro” value was “inhibits pro-inflammatory, pro-angiogenic and/or pro-fibrotic cytokines; also recorded: inhibit the expression (mRNA, FIG. 3) and secretion”. Moreover, the “ocular” value in test [3] was “inhibit ocular (retinal) neo-angiogenesis; also recorded: inhibit ocular neoangiogenesis”. Also, the inhibition at 2.5 µM in test [4] is at least 50%. In test [10], the “choroidal neovascularization (CNV)” value is “inhibits vascular leakage (FIGS. 9A and B) and neovascularization; also recorded: inhibits choroidal neovascularization (CNV)”; the “vascular leakage (FFA grade 2b lesions)” value was “inhibits choroidal neovascularization (CNV) and vascular leakage”.
Turning to `Nc1nc(Nc2ccc(Cl)cc2)nn1Cc1cccc(Br)c1` [MCK344, 1-(3-bromobenzyl)-N^3-(4-chlorophenyl)-1H-1,2,4-triazole-3,5-diamine], in [1], the inhibition at 1 µM is at least 50% and the inhibition at 5 µM was at least 50%. For the same compound, the IC50 in [2] is above 25 µM. In [3], the “ocular” value is “inhibit ocular (retinal) neo-angiogenesis; also recorded: inhibit ocular neoangiogenesis”. Also, the inhibition at 2.5 µM in [4] is at least 50%.

Source of the values: patent publication US20260284014A1, “3,5-DIAMINOTRIAZOLE DERIVATIVES AND USES THEREOF FOR TREATING OCULAR DISEASES” (CENTRE NATIONAL DE LA RECHERCHE SCIENTIFIQUE, priority 2023, published 2026).
